This is an account of results in patent US20060241083A1, “Novel heteroaryl phosphonates as cardioprotective agents” (Medicure International Inc., priority 2003, published 2006).

This experiment deals with Male Wistar rats. The experiment in a line: Ischemia reperfusion: infarct size after LAD occlusion (25 min) and reperfusion (2 h) in anesthetised rats. It is filed as in vivo, rat. Conditions: 32 mg/kg i.v. bolus 5 min prior to ischemia; 25 min LAD occlusion, 2 h reperfusion; vs vehicle 56±3% of the AAR; P=0.047, unpaired Students t-test; FIG. 2. As to the method:
Male Wistar rats (200-300 g, Tuck, Rayleigh, Essex, U.K.) were anesthetised with thiopentone sodium (Intraval®, 120 mg/kg i.p.; Rhone-Merrieux, Essex, U.K.). The rats were tracheotomised, intubated and ventilated with a Harvard ventilator (70 strokes/min, tidal volume: 8-10 mL/kg, inspiratory oxygen concentration: 30%). Body temperature was maintained at 38±1° C. The right carotid artery was cannulated and connected to a pressure transducer (MLT 1050, AD Instruments Ltd, Hastings, UK) to monitor mean arterial blood pressure (MAP) and heart rate (HR), which were continuously recorded on a data acquisition system such as Powerlab® Version 4.0.4, AD Instruments, Hastings, UK. The right jugular vein was cannulated for drug administration and the administration of Evans Blue dye (at the end of the experiment). A lateral thoracotomy was performed and the heart was suspended in a temporary pericardial cradle. A snare occluder was placed around the left anterior descending coronary artery (LAD). After completion of the surgical procedure the animals were allowed to stabilise for 30 min before LAD ligation. Five minutes prior to the onset of myocardial ischemia, a bolus injection (i.v.) of either vehicle or phosphonate was administered. The coronary artery was occluded at time 0 by tightening of the occluder. […]

For the compound `Cc1nc(-c2ccccc2)c(C(F)P(=O)(O)O)c(CO)c1O` (stereo not shown) [Compound 38, [Fluoro-(5-hydroxy-4-hydroxymethyl-6-methyl-2-phenyl-pyridin-3-yl)-methyl]-phosphonic acid], the “myocardial infarct size (as a percentage of the weight of the AAR)” value was “reduced myocardial infarct size”.
